Literature values, collected in patent US5869086A, “Systems for the controlled release of pilocarpine” (LTS Lohmann Therapie-Systeme GmbH, priority 1993, dated 1999).

Tests used:
adults = details: systemic, single maximum dose for adults; German Federal Board of Health
[1] = system: patients suffering from glaucoma (eye); details: applied to the eye
[2] = system: postganglionic, parasympathetic acetylcholine receptors; details: textbook

dosage at which risks are likely to arise (adults): below 20 mg
hazard of high systemic doses (heart; high doses, effect on the heart): hazardous to patients' life and health
SMILES: CC[C@@H]1C(=O)OC[C@@H]1Cc1cncn1C [pilocarpine, (3S, 4R)-3-ethyl-4,5-dihydro-4-(1-methyl-1H-imidazole-5-ylmethyl)-2(3H)-furanone]
impairment of the heart function compared with carbachol (heart; textbook, general application): impairment of the heart function is more distinct
duration of one application [1]: 4 to 6 h
action on acetylcholine receptors [2]: specifically stimulates the postganglionic, parasympathetic acetylcholine receptors
